This is an account of results in patent US7402559B2, “Composition and method of treatment for urogenital conditions” (MSH Pharma, Incorporated, priority 1999, dated 2008).

In experiment [1] the test system is S. aureus (ATCC 29213). Description: S. aureus colony formation (viability). The conditions noted are these: FIG. 1; significant at peptide concentrations of 10^−12 to 10^−4 M; 2 h at 37° C. The format is cell-based, Staphylococcus aureus. The protocol:
Cultures of S. aureus (ATCC 29213) were obtained from the collection of the Department of Microbiology, Ospedale Maggiore di Milano. […] Cells were then washed in cold distilled water and diluted with HBSS to a concentration of 100 organisms/ml. One-milliliter aliquots were dispensed on blood agar plates and incubated for 24 hours at 37° C. Viability of the microorganisms was estimated from the colonies formed. In another set of experiments, 500 units of urokinase, a S. aureus growth enhancer, were also incubated with the bacteria (10^5/100 ml ) for four hours at 37° C. in a shaking water bath together with the peptides.

Experiment [2] deals with C. krusei. Description: Candida CFU, CKPV dimer versus KPV: C. krusei. The format is cell-based. The conditions noted are these: FIG. 18; same molarity (10^−4 M). The method, then: (§1) C. albicans, C. glabrata. and C. krusei (clinical isolates) were obtained from the collection of the laboratory of Microbiology, Ospedale Maggiore di Milano. Six different isolates for each yeast strain were used. Candida Sp. cells were maintained on Sabouraud's agar slants and periodically transferred to Sabouraud's agar plates and incubated for 48 h at 28° C. To prepare stationary growth phase yeast, a colony was taken from the agar plates and transferred into 5 ml Sabouraud-dextrose broth and incubated for 48 h at 32° C. Cells were centrifuged at 1,000× g for 10 minutes and the pellet was washed twice with distilled water. Cells were counted and suspended in distilled water to obtain 10^7 yeast cells/ml. Viability, determined by the exclusion of 0.01% methylene blue, remained >98%.
(§2) Control tubes received 100 μl of distilled water. All the tests were run in triplicate. After 2 h incubation at 37° C., yeast suspension from each vial was diluted with distilled water to obtain approximately 100 organisms/ml. One milliliter aliquots from each tube were dispensed on blood agar plates and incubated for 48 h at 37° C. to count CFUs. Organism viability was estimated from the number of CFUs in each plate. Only experiments in which CFUs in control plates were between 80 and 120 with a variability in counts less than 10% were used to evaluate effects of the peptides. […]

Experiment [3] concerns C. albicans. Description: Candida CFU, CKPV dimer versus KPV: C. albicans. The format is cell-based. The conditions noted are these: FIG. 17; same molarity (10^−4 M). The protocol: as §1, §2
Experiment [4] deals with C. albicans. The experiment in a line: C. albicans colony formation (CFU viability). The format is cell-based, Candida albicans. The conditions noted are these: FIG. 3; 10^−12 to 10^−4 M; p<0.01 vs. control. The method, then:
Clinical isolates of C. albicans were obtained from the collection of the Department of Microbiology, Ospedale Maggiore di Milano. Cultures of C. albicans were maintained on Sabouraud's agar slants and periodically transferred to Sabouraud's agar plates and incubated for 48 hours at 28° C. To prepare stationary growth-phase yeast, a colony was taken from the agar plate, transferred into 30 ml of Sabouraud-dextrose broth, and incubated for 72 hours at 32° C. Cells were centrifuged at 1000× g for ten minutes, and the pellet was washed twice with distilled water. Cells were counted and suspended in Hank's balanced salt solution (“HBSS”) to the desired concentration.
Cells were then washed in cold distilled water and diluted with HBSS to a concentration of 100 organisms/ml. One-milliliter aliquots were then dispensed on blood agar plates and incubated for 48 hours at 37° C. The organism's viability was estimated from the number of colonies formed.
[…] The effects of forskolin and ddAdo on the ability of C. albicans to form colonies were determined according to the procedures described in Example II.

For experiment [5], the system named is C. glabrata. The experiment in a line: Candida CFU, CKPV dimer versus KPV: C. glabrata. The conditions noted are these: FIG. 19; same molarity (10^−4 M). The format is cell-based. The protocol:
as §1, §2

Bridge positions count the residues as written; N and C are the ends. Ends that are not written are not given here. I, II: the chains in the order shown.

With “VPKC-s-s-CKPV (disulfide I:1-II:1; not fully specified (N-terminus, C-terminus)) [CKPV dimer]”, in experiment [1], the “S. aureus colony formation” value is given as “inhibited”. In addition, in experiment [2], the “effectiveness relative to KPV monomer, C. krusei” value was “more than twice as effective”. Moreover, the “effectiveness relative to KPV monomer, C. albicans” value in experiment [3] is recorded as “more than twice as effective”. Moreover, the “ability of C albicans to form colonies” value in experiment [4] is given as “greatly reduced”. Further, the “effectiveness relative to KPV monomer, C. glabrata” value in experiment [5] is reported as “more than twice as effective”.
